Measured values taken from the supplement of paper PMC6045584.
± gives the standard deviation of the averaged measurements.

What was measured:
ETOPOSIDE = compound: COc1cc([C@@H]2c3cc4c(cc3[C@@H](O[C@@H]3O[C@@H]5CO[C@@H](C)O[C@H]5[C@H](O)[C@H]3O)[C@H]3COC(=O)[C@H]23)OCO4)cc(OC)c1O [ETOPOSIDE]; test: surviving fraction relative to DMSO-only wells; higher = less growth inhibition; details: exposure time: 5 days
How it was run: (§1)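 After seeding at 250–500 cells per well in 384-well plates and a 24-hour wait, log-phase tumour cell lines were exposed without interruption for five days to inhibitors at 0.5, 1, 5, 10, 50, 100, 500 and 1000 nM. CellTiter-Glo luminescence was recorded after 10 minutes at room temperature. Viability is reported as surviving fraction, the luminescence normalised to the median of DMSO-only wells.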

METHOTREXATE = compound: CN(Cc1cnc2nc(N)nc(N)c2n1)c1ccc(C(=O)N[C@@H](CCC(=O)O)C(=O)O)cc1 [METHOTREXATE]; test: as above; details: exposure time: 5 days
How it was run: as §1

Row | Test System | surviving fraction (ETOPOSIDE; 0.5 nM) | surviving fraction (ETOPOSIDE; 1 nM) | surviving fraction (ETOPOSIDE; 5 nM) | surviving fraction (ETOPOSIDE; 10 nM) | surviving fraction (ETOPOSIDE; 50 nM) | surviving fraction (ETOPOSIDE; 100 nM) | surviving fraction (ETOPOSIDE; 500 nM) | surviving fraction (ETOPOSIDE; 1000 nM) | surviving fraction (METHOTREXATE; 0.5 nM) | surviving fraction (METHOTREXATE; 1 nM) | surviving fraction (METHOTREXATE; 5 nM) | surviving fraction (METHOTREXATE; 10 nM) | surviving fraction (METHOTREXATE; 50 nM) | surviving fraction (METHOTREXATE; 100 nM) | surviving fraction (METHOTREXATE; 500 nM) | surviving fraction (METHOTREXATE; 1000 nM)
1 | SNU475 LIVER | 1.02 ± 0.05 | 0.999 ± 0.11 | 1 ± 0.039 | 1.03 ± 0.042 | 0.9937 ± 0.0049 | 0.957 ± 0.066 | 0.835 ± 0.042 | 0.571 ± 0.062 | 1.04 ± 0.056 | 1.05 ± 0.05 | 1.05 ± 0.018 | 0.924 ± 0.01 | 0.822 ± 0.13 | 0.854 ± 0.072 | 0.875 ± 0.047 | 0.843 ± 0.11
2 | SG31 HEADNECK | 1.05 ± 0.092 | 1.06 ± 0.04 | 1.1 ± 0.11 | 1.13 ± 0.14 | 0.946 ± 0.11 | 0.969 ± 0.11 | 0.856 ± 0.087 | 0.837 ± 0.058 | 1.14 ± 0.19 | 1.21 ± 0.037 | 1.07 ± 0.1 | 1.31 ± 0.22 | 1.16 ± 0.2 | 1.18 ± 0.19 | 1.26 ± 0.2 | 1.21 ± 0.024
3 | HS57T BREAST | 1.02 ± 0.016 | 0.967 ± 0.049 | 1.01 ± 0.02 | 1.06 ± 0.069 | 1.09 ± 0.055 | 0.909 ± 0.06 | 0.409 ± 0.048 | 0.288 ± 0.017 | 1 ± 0.11 | 1.03 ± 0.075 | 1.03 ± 0.032 | 0.985 ± 0.12 | 0.252 ± 0.025 | 0.226 ± 0.013 | 0.205 ± 0.018 | 0.214 ± 0.0081
4 | SAOS2 BONE | 1.03 ± 0.027 | 1.06 ± 0.028 | 1.17 ± 0.02 | 1.16 ± 0.049 | 1.13 ± 0.035 | 1.147 ± 0.011 | 0.783 ± 0.04 | 0.439 ± 0.022 | 1.2 ± 0.051 | 1.18 ± 0.037 | 1.25 ± 0.05 | 1.25 ± 0.023 | 1.04 ± 0.031 | 0.841 ± 0.035 | 0.752 ± 0.018 | 0.753 ± 0.028
5 | SCC36 HEADNECK | 1.13 ± 0.12 | 1.05 ± 0.18 | 1.1 ± 0.12 | 1.08 ± 0.1 | 1.02 ± 0.052 | 1.15 ± 0.086 | 0.668 ± 0.035 | 0.512 ± 0.0061 | 1.1 ± 0.11 | 1.1 ± 0.042 | 1.15 ± 0.076 | 1.16 ± 0.14 | 0.828 ± 0.022 | 0.731 ± 0.017 | 0.575 ± 0.046 | 0.626 ± 0.082
6 | HCC78 LUNG | 0.952 ± 0.064 | 0.863 ± 0.27 | 1 ± 0.082 | 0.925 ± 0.16 | 0.841 ± 0.11 | 0.649 ± 0.099 | 0.0883 ± 0.027 | 0.089 ± 0.024 | 1 ± 0.064 | 0.847 ± 0.19 | 0.914 ± 0.12 | 0.831 ± 0.13 | 0.503 ± 0.056 | 0.448 ± 0.058 | 0.421 ± 0.032 | 0.41 ± 0.039
7 | PCI30 HEADNECK | 0.943 ± 0.1 | 1.03 ± 0.025 | 1.02 ± 0.09 | 1 ± 0.041 | 1.07 ± 0.05 | 1.01 ± 0.053 | 0.579 ± 0.063 | 0.424 ± 0.031 | 0.988 ± 0.075 | 1.02 ± 0.062 | 1.11 ± 0.037 | 1.09 ± 0.075 | 1.05 ± 0.055 | 0.96 ± 0.029 | 0.811 ± 0.016 | 0.758 ± 0.071
8 | JURKAT HAEMATOPOIETIC AND LYMPHOID TISSUE | 1.084 ± 0.0084 | 1.1 ± 0.023 | 1.052 ± 0.0055 | 1.011 ± 0.0045 | 0.633 ± 0.043 | 0.261 ± 0.01 | 0.064 ± 0.005 | 0.0413 ± 0.00058 | 1.02 ± 0.012 | 1.02 ± 0.035 | 1.02 ± 0.03 | 0.404 ± 0.012 | 0.036 ± 0.001 | 0.0293 ± 0.0015 | 0.0293 ± 0.00058 | 0.031
9 | SG43 HEADNECK | 1.02 ± 0.13 | 1.02 ± 0.21 | 0.933 ± 0.24 | 0.832 ± 0.23 | 0.876 ± 0.031 | 0.645 ± 0.11 | 0.894 ± 0.07 | 0.644 ± 0.064 | 0.924 ± 0.046 | 1.01 ± 0.21 | 0.917 ± 0.18 | 0.915 ± 0.16 | 0.881 ± 0.092 | 0.678 ± 0.091 | 0.909 ± 0.15 | 0.84 ± 0.055
10 | MG63 BONE | 1.01 ± 0.033 | 0.998 ± 0.038 | 1.05 ± 0.059 | 1.06 ± 0.036 | 1.06 ± 0.052 | 1.05 ± 0.066 | 0.778 ± 0.043 | 0.265 ± 0.016 | 1.05 ± 0.051 | 1.07 ± 0.047 | 1.11 ± 0.042 | 1.1 ± 0.052 | 0.364 ± 0.016 | 0.197 ± 0.0027 | 0.178 ± 0.01 | 0.17 ± 0.0082
